One experiment deals with BCL-xL (Homo sapiens, UniProt Q07817). In words: BCL-binding assay (AlphaLISA competition, BAD peptide). To be noted: 6xHis BCL-xL with biotinylated BAD peptide, 24 hr incubation. The procedure:
(§1) Compounds were prepared as 400× DMSO stock solutions in a 1:4 dilution series then diluted […] in assay buffer (25 mM HEPES pH 7.5, 100 mM NaCl, 0.1% BSA, 0.005% Tween) immediately before use. Aliquots of 400 nM 6xHis-tagged BCL-xL, BCL-2, and BCL-w were thawed on ice and diluted to 0.4 (BCL-XL) or 0.8 (BCL-W and 2) nM in assay buffer. Aliquots of biotinylated BIM and BAD peptides were diluted in assay buffer to 120 and 60 nM respectively. Ten microliters of biotinylated peptide were added to wells of a 96-well PCR plate, followed by ten microliters of inhibitor, then ten microliters of BCL protein, BCL-XL with BAD and BCL-W/2 with BIM. The plates were sealed and incubated at room temperature. After 24 hr, 0.16 μg Anti-His conjugated AlphaLISA acceptor beads were added in 5 μL assay buffer. After one hour at room temperature, 0.16 μg AlphaScreen streptavidin donor beads were added in 5 μL assay buffer and plates were incubated an additional 30 min in the dark. Two 17 μL aliquots of each reaction were plated in a Perkin Elmer 384-well proxiplate, and plates were scanned for using a Perkin Elmer Enspire plate reader. Kd values were calculated in Prism Graph Pad using a one site competitive binding model and previously determined Kd values for each protein peptide pair. […]

A further experiment deals with BCL-2 (Homo sapiens, UniProt P10415). Put plainly: BCL-binding assay (AlphaLISA competition, BIM peptide). To be noted: 6xHis BCL-2 with biotinylated BIM peptide, 24 hr incubation. The procedure: as §1
Sequence of BCL-2 (P10415 whole entry, species assumed): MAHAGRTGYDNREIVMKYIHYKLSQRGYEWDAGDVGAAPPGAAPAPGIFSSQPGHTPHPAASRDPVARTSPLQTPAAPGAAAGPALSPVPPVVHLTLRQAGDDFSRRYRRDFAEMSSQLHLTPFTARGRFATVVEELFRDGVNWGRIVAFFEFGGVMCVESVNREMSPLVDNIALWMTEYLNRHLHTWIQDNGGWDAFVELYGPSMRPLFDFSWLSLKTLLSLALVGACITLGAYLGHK
A general note: Bead proximity is the source of the signal in Alpha formats.

The target of the next experiment is T1, BCL-w (Homo sapiens, UniProt Q92843).
T1 sequence (Q92843 1-193): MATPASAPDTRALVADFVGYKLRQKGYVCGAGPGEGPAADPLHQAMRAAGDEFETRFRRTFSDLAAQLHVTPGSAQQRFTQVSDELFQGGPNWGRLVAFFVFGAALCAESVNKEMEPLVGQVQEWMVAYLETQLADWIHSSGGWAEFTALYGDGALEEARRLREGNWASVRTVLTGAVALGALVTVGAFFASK
The experiment is described as above. The settings on record: 6xHis BCL-w with biotinylated BIM peptide, 24 hr incubation. As to the method: as §1

The subject of experiment [1] is IMR-90 SnC (irradiated senescent IMR90 cells). Put plainly: Senolysis assay (CellTiter-Glo viability). It is filed as cell-based, human. To be noted: for EC50: Homo sapiens, IMR-90, light or radiation study, 72 h, X-ray irradiated senescent IMR90 cells, viability three days after compound addition; for SI (ratio of EC50 of non-senescent cells to EC50 of senescent cells): IMR90 non-senescent vs senescent cells. The procedure:
IMR90 cells are maintained in DMEM supplemented with 10% FBS. To prepare a senescent population, cells were trypsinized, diluted to 50,000 per mL, and irradiated with 10-15 Gy of X-ray irradiation. Irradiated cells were plated at 5000 cells per well in one third of a 96-well plate and maintained for two weeks prior to the assay. Four days prior to the assay, non-senescent IMR90s were plated at 2500 per well in the second third of the plate. One day prior to the assay, 2500 non-senescent cells were plated in the final third of the plate. Compounds were prepared as a 200×DMSO dilution series then diluted to 1× in media immediately before adding to cells. Three days after compound addition, cell viability was measured using CellTiter-Glo reagent from Promega. Viability was calculated relative to a DMSO control and EC50 values are calculated in Prism GraphPad. […] The selectivity (SI) of the compounds described herein is a ratio of the EC50 of non-senescent cells to the EC50 of senescent cells. The SI of the compounds described herein is 10 or above for “A” selectivity, between 2 and 10 for “B” selectivity or 2 or less for “C” selectivity.
In general terms: ATP-based viability assays read luminescence as a measure of living cells.

Sequence of BCL-xL (Q07817 whole entry, species assumed): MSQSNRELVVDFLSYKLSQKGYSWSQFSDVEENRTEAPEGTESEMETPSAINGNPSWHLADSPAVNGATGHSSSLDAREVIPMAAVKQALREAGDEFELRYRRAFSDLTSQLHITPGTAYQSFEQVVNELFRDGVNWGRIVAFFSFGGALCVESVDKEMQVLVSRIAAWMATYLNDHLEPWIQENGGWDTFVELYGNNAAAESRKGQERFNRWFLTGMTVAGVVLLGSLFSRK

The Kd is the constant that tells how readily two partners part at equilibrium. A higher Kd goes with weaker binding. In general, EC50 refers to the concentration at which the effect is half-maximal. A high value points to a less potent agent. On to `CCOP(=O)(CN1CCN(CC[C@H](CSc2ccccc2)Nc2ccc(S(=O)(=O)NC(=O)c3ccc(N4CCN(CC5=C(c6ccc(Cl)cc6)CCC(C)(C)C5)CC4)cc3)cc2S(=O)(=O)C(F)(F)F)CC1)OCOC(=O)C(C)(C)C` (stereo partly drawn) [Compound 28, (((4-((R)-3-((4-(N-(4-(4-((4′-Chloro-4,4-dimethyl-3,4,5,6-tetrahydro-[1,1′-biphenyl]-2-yl)methyl)piperazin-1-yl)benzoyl)sulfamoyl)-2-((trifluoromethyl)sulfonyl)phenyl)amino)-4-(phenylthio)butyl)piperazin-1-yl)methyl)(ethoxy)phosphoryl)oxy)methyl pivalate], for which the dissociation constant Kd on BCL-xL was 0.001 to 0.01 µM; on BCL-2, less than 0.001 µM; on BCL-w, 0.01 to 0.05 µM. This molecule also returned a concentration for a half-maximal effect (EC50) in experiment [1] of less than 1 µM. The “SI (ratio of EC50 of non-senescent cells to EC50 of senescent cells)” value in experiment [1] is “B (between 2 and 10)”.
As to `CCOP(=O)(CN1CCN(CC[C@H](CSc2ccccc2)N(c2ccc(S(=O)(=O)NC(=O)c3ccc(N4CCN(CC5=C(c6ccc(Cl)cc6)CCC(C)(C)C5)CC4)cc3)cc2S(=O)(=O)C(F)(F)F)S(C)(=O)=O)CC1)OCC` [Compound 29], the Kd is 0.01 to 0.05 µM at BCL-xL, 0.01 to 0.05 µM at BCL-2 and greater than 0.05 µM at BCL-w. For the same molecule, the EC50 in experiment [1] lay within 1 to 10 µM. In addition, the “SI (ratio of EC50 of non-senescent cells to EC50 of senescent cells)” value in experiment [1] was “C (2 or less)”.
On to `CCOP(=O)(O)CN1CCN(CC[C@H](CSc2ccccc2)N(c2ccc(S(=O)(=O)NC(=O)c3ccc(N4CCN(CC5=C(c6ccc(Cl)cc6)CCC(C)(C)C5)CC4)cc3)cc2S(=O)(=O)C(F)(F)F)S(C)(=O)=O)CC1` [Compound 30], for which the dissociation constant Kd was 0.001 to 0.01 µM at BCL-xL, 0.001 to 0.01 µM on BCL-2 and greater than 0.05 µM on BCL-w. Further, the EC50 in experiment [1] was 1 to 10 µM.
As for `CCOP(=O)(O)CCCN1CCN(CC[C@H](CSc2ccccc2)Nc2ccc(S(=O)(=O)NC(=O)c3ccc(N4CCN(CC5=C(c6ccc(Cl)cc6)CCC(C)(C)C5)CC4)cc3)cc2S(=O)(=O)C(F)(F)F)CC1` [Compound 31], the Kd on BCL-xL was less than 0.001 µM; at BCL-2, less than 0.001 µM; at BCL-w, 0.001 to 0.01 µM. The molecule further registered a concentration for a half-maximal effect (EC50) in experiment [1] greater than 10 µM.
Consider `CC1(C)CCC(c2ccc(Cl)cc2)=C(CN2CCN(c3ccc(C(=O)NS(=O)(=O)c4ccc(N[C@H](CCN5CCN(CCCP(=O)(O)O)CC5)CSc5ccccc5)c(S(=O)(=O)C(F)(F)F)c4)cc3)CC2)C1` [Compound 32], for which the dissociation constant Kd on BCL-xL was less than 0.001 µM; on BCL-2, less than 0.001 µM; at BCL-w it was 0.01 to 0.05 µM. Also, the half-maximal effective concentration (EC50) in experiment [1] is greater than 10 µM.
Turning to `CCOP(=O)(CCCN1CCN(CC[C@H](CSc2ccccc2)Nc2ccc(S(=O)(=O)NC(=O)c3ccc(N4CCN(CC5=C(c6ccc(Cl)cc6)CCC(C)(C)C5)CC4)cc3)cc2S(=O)(=O)C(F)(F)F)CC1)OCOC(=O)C(C)(C)C` (some centres unmarked) [Compound 33], the dissociation constant (Kd) is less than 0.001 µM on BCL-xL, less than 0.001 µM at BCL-2 and 0.001 to 0.01 µM at BCL-w. The molecule also gave a concentration giving a half-maximal response (EC50) in experiment [1] greater than 10 µM. In addition, in experiment [1], the “SI (ratio of EC50 of non-senescent cells to EC50 of senescent cells)” value was “B (between 2 and 10)”.
Turning to `CCOP(=O)(CN1CCN(CC(CSc2ccccc2)Nc2ccc(S(=O)(=O)NC(=O)c3ccc(N4CCN(CC5=C(c6ccc(Cl)cc6)CCC(C)(C)C5)CC4)cc3)cc2S(=O)(=O)C(F)(F)F)CC1)OCC` (centres unmarked) [Compound 34], the equilibrium dissociation constant (Kd) at BCL-xL is 0.001 to 0.01 µM; at BCL-2, less than 0.001 µM; at BCL-w it was greater than 0.05 µM. In experiment [1], the concentration for a half-maximal effect (EC50) was greater than 10 µM. Moreover, the “SI (ratio of EC50 of non-senescent cells to EC50 of senescent cells)” value in experiment [1] is “C (2 or less)”.
For `CCOP(=O)(CCN1CCN(CC(CSc2ccccc2)Nc2ccc(S(=O)(=O)NC(=O)c3ccc(N4CCN(CC5=C(c6ccc(Cl)cc6)CCC(C)(C)C5)CC4)cc3)cc2S(=O)(=O)C(F)(F)F)CC1)OCC` (centres unmarked) [Compound 35, Diethyl (2-(4-(2-((4-(N-(4-(4-((4′-chloro-4,4-dimethyl-3,4,5,6-tetrahydro-[1,1′-biphenyl]-2-yl)methyl)piperazin-1-yl)benzoyl)sulfamoyl)-2-((trifluoromethyl)sulfonyl)phenyl)amino)-3-(phenylthio)propyl)piperazin-1-yl)ethyl)phosphonate] the same measures were 0.001 to 0.01 µM, less than 0.001 µM, greater than 0.05 µM, 1 to 10 µM and “C (2 or less)”.
Take `CCOP(=O)(CCCN1CCN(CC[C@H](CSc2ccccc2)Nc2ccc(S(=O)(=O)NC(=O)c3ccc(N4CCN(CC5=C(c6ccc(Cl)cc6)CCC(C)(C)C5)CC4)cc3)cc2S(=O)(=O)C(F)(F)F)CC1)OCOC(=O)OC(C)C` (some centres unmarked) [Compound 36]: the figures for the dissociation constant (Kd) on BCL-xL, on BCL-2 and on BCL-w were less than 0.001 µM, less than 0.001 µM and 0.01 to 0.05 µM, respectively. The molecule further displayed an EC50 in experiment [1] of 1 to 10 µM. Also, the “SI (ratio of EC50 of non-senescent cells to EC50 of senescent cells)” value in experiment [1] is “B (between 2 and 10)”.
Turning to `CCOP(=O)(CCCN1CCN(CC[C@H](CSc2ccccc2)Nc2ccc(S(=O)(=O)NC(=O)c3ccc(N4CCN(CC5=C(c6ccc(Cl)cc6)CCC(C)(C)C5)CC4)cc3)cc2S(=O)(=O)C(F)(F)F)CC1)OCOC(C)=O` (some centres unmarked) [Compound 37], the dissociation constant (Kd) at BCL-xL is less than 0.001 µM; at BCL-2 it was less than 0.001 µM; at BCL-w it was 0.001 to 0.01 µM. The molecule further returned an EC50 in experiment [1] of 1 to 10 µM. Also, in experiment [1], the “SI (ratio of EC50 of non-senescent cells to EC50 of senescent cells)” value was “B (between 2 and 10)”.
With `CCOP(=O)(CCN1CCN(CC[C@H](CSc2ccccc2)Nc2ccc(S(=O)(=O)NC(=O)c3ccc(N4CCN(CC5=C(c6ccc(Cl)cc6)CCC(C)(C)C5)CC4)cc3)cc2S(=O)(=O)C(F)(F)F)CC1)OCOC(=O)C(C)(C)C` (some centres unmarked) [Compound 38], the Kd is less than 0.001 µM on BCL-xL, less than 0.001 µM at BCL-2 and 0.01 to 0.05 µM at BCL-w. In experiment [1], the 50% effective concentration (EC50) lay in the range of 1 to 10 µM. The “SI (ratio of EC50 of non-senescent cells to EC50 of senescent cells)” value in experiment [1] is listed as “A (10 or above)”.
Regarding `CCOP(=O)(CN1CCN(CC[C@H](CSc2ccccc2)Nc2ccc(S(=O)(=O)NC(=O)c3ccc(N4CCN(CC5=C(c6ccc(Cl)cc6)CCC(C)(C)C5)CC4)cc3)cc2S(=O)(=O)C(F)(F)F)CC1)OCOC(=O)OC(C)C` (stereo partly drawn) [Compound 39, [[4-[(3R)-3-[4-[[4-[4-[[2-(4-Chlorophenyl)-5,5-dimethyl-cyclohexen-1-yl]methyl]piperazin-1-yl]benzoyl]sulfamoyl]-2-(trifluoromethylsulfonyl)anilino]-4-phenylsulfanyl-butyl]piperazin-1-yl]methyl-ethoxy-phosphoryl]oxymethyl isopropyl carbonate], the Kd at BCL-xL is less than 0.001 µM; at BCL-2, less than 0.001 µM; at BCL-w, 0.01 to 0.05 µM. For the same molecule, the concentration for a half-maximal effect (EC50) in experiment [1] was less than 1 µM. In experiment [1], the “SI (ratio of EC50 of non-senescent cells to EC50 of senescent cells)” value is “A (10 or above)”.
Consider `CC1(C)CCC(c2ccc(Cl)cc2)=C(CN2CCN(c3ccc(C(=O)NS(=O)(=O)c4ccc(N[C@H](CCN5CCN(CCCP(=O)(OCOC(=O)C(C)(C)C)OCOC(=O)C(C)(C)C)CC5)CSc5ccccc5)c(S(=O)(=O)C(F)(F)F)c4)cc3)CC2)C1` [Compound 40], for which the results for the dissociation constant Kd on BCL-xL, on BCL-2 and at BCL-w were less than 0.001 µM, less than 0.001 µM and 0.01 to 0.05 µM, respectively. In addition, the concentration giving a half-maximal response (EC50) in experiment [1] was greater than 10 µM. Further, in experiment [1], the “SI (ratio of EC50 of non-senescent cells to EC50 of senescent cells)” value was “B (between 2 and 10)”.

Values taken from US11111259B2, “Acylsulfonamide derivatives for treating senescence-associated diseases and disorders” (Unity Biotechnology, Inc., priority 2015, dated 2021).
